Values quoted from earlier work in patent EP3196312B1, “EFFICIENT CONVERSION OF METHYLGLYOXAL INTO HYDROXYACETONE USING NOVEL ENZYMES AND APPLI CATIONS THEREOF” (Metabolic Explorer, priority 2016, dated 2017).

Experiments:
[1] = target: T1, Escherichia coli YqhD (alcohol dehydrogenase, Uniprot Q46856), wild type, SEQ ID NO: 7 (Escherichia coli, UniProt Q46856); conditions: toward methylglyoxal and NADPH; as cited from WO 2011/012697
T1 sequence (Q46856 1-387): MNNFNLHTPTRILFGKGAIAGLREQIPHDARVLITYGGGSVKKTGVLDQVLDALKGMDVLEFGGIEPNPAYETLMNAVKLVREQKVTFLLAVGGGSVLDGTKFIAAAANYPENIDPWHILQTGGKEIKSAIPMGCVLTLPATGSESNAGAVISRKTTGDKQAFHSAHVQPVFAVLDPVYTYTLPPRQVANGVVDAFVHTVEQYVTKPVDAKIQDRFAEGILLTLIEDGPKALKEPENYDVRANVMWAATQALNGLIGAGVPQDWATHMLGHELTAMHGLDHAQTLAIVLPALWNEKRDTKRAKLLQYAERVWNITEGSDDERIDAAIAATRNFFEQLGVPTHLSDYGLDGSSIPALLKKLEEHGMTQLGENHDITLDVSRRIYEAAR

[2] = target: T2, Escherichia coli YqhD variant YqhD*(G149E), SEQ ID NO: 9 (Escherichia coli, UniProt Q46856, G149E); conditions: toward methylglyoxal and NADPH; as cited from WO 2011/012697
T2 sequence (Q46856 1-387 G149E): T1 sequence (Q46856 1-387)

Structure (SMILES): CC(=O)C=O [methylglyoxal]
- Km [1]: 2090 µM
- Km [2]: 2920 µM
